Data taken from patent US20260224532A1, “ESTROGEN RECEPTOR BETA LIGANDS FOR THE PREVENTION AND TREATMENT OF MULTIPLE SCLEROSIS (MS) AND OTHER DEMYELINATING, INFLAMMATORY AND NEURODEGENERATIVE DISEASES” (The Board of Trustees of the University of Illinois, priority 2023, published 2026).

What was measured:
[1] = molecular target: T1, purified, full length human ERα (Homo sapiens, UniProt P03372); test: Relative binding affinity (RBA) radiometric competitive binding assay, ERα; conditions: for RBA ERα: relative binding affinity, E2 (estradiol) is 100%, tritiated estradiol tracer; for binding affinity for ERα (in words): compared with the other 7-substituted indazoles
T1 construct: purified, full length human ERα and ERβ
T1 sequence (P03372 1-595): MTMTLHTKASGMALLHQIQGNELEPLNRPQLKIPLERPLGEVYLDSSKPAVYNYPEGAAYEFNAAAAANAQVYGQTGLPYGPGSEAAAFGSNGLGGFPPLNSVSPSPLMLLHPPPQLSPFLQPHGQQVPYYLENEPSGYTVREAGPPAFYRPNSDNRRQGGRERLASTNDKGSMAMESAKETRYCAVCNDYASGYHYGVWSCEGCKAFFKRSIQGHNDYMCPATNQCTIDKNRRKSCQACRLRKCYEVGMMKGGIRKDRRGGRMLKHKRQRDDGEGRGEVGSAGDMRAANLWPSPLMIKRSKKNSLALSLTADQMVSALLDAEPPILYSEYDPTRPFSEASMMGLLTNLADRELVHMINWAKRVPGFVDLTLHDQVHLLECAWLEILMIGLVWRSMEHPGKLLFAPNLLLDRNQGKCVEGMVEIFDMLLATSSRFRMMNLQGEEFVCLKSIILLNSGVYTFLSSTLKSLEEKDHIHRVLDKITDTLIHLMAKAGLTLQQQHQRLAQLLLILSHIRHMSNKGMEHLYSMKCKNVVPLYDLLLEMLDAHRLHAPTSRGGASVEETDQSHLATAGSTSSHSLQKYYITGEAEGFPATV

[2] = molecular target: T2, purified, full length human ERβ (Homo sapiens, UniProt Q92731); test: Relative binding affinity (RBA) radiometric competitive binding assay, ERβ; conditions: for β/α (ERβ/ERα selectivity): ratio of RBA ERβ to RBA ERα; for RBA ERβ: relative binding affinity, E2 (estradiol) is 100%, tritiated estradiol tracer; for selectivity of binding to ERβ vs ERα: text statement of the β/α ratio; for binding affinity for ERβ (in words): compared with the other 7-substituted indazoles
T2 construct: purified, full length human ERα and ERβ
T2 sequence (Q92731 whole entry): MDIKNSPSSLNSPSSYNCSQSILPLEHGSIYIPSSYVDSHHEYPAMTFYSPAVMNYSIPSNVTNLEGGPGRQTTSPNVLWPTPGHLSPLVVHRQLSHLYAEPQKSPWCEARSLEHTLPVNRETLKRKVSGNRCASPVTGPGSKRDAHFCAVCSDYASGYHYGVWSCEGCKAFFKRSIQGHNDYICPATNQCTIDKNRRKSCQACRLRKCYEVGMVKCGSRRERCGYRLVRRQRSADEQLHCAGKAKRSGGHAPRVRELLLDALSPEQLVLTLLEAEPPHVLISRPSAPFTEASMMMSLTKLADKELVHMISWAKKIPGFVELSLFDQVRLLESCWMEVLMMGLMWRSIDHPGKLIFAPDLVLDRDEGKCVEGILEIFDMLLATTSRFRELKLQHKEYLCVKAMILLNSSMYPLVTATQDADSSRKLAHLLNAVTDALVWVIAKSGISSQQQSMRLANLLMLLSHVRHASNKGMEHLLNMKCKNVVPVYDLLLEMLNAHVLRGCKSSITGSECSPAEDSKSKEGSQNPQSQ

Primary OPCs = test: Primary OPC culture: MBP+ OL differentiation and total cell count (DAPI); format: cell-based, mouse; conditions: for number of MBP+ OLs with increased percentage of branched OLs, compared to vehicle-treated cells / total number of cells (DAPI): 10 nM
Protocol: Primary OPC Cultures: Primary OPCs, isolated from postnatal day P1 C57BL/6 male and female mouse cortices as described previously, are treated with 10 nM ligands in differentiating medium for […] (Tiwari-Woodruff et al., 2001; Tiwari-Woodruff et al., 2006). Primary OPC are cultured into 8-well chamber slides (three wells per condition, 2.5×10^5 cells/well) for three days to attach and five days in differentiating media (consisting of DMEM-F12 with triiodothyronine- and thyroxine-containing Sato as well as penicillin, streptomycin, insulin, N-acetyl-L-cysteine, forskolin, ciliary neurotrophic factor, neurotrophin-3, and platelet-derived growth factor […] (Tiwari-Woodruff et al., 2001)). A positive control (IndC1), a negative control (Vehicle consisting of the media+EtOH mixture used to dissolve IndCl), and a normal control (differentiating media alone) are used for comparison. At the end of the treatment period, cells are fixed, stained by immunocytochemistry (primary antibody polyclonal chicken myelin basic protein (MBP, Millipore AB9348), and co-stained with nuclear stain-DAPI), and imaged with an Olympus BX61 confocal microscope (Olympus America Inc., Center Valley, PA) at 10× magnification (3 images per well). Cells are counted using the ImageJ multipoint tool, and counts are then divided by the image area (mm^2). Average cell density for each condition is then divided by the normal condition cell density. Analysis of OL differentiation consists of counting the number of MBP+ cells and process extensions that are longer than the respective cell-body diameter and tracking the number of highly branched MBP+ cells (with three or more processes) (Monnerie et al., 2017). Statistics are performed using GraphPad Prism 6 Software (La Jolla, CA). One-way ANOVA with Tukey's posthoc test for multiple comparisons is used to generate p-values, and data are presented as mean±SEM (with α≤0.05).
FIG. 1A-1D show the effects of treatment with the 7-substituted indazole compounds on the expression of myelin basic protein in OLs (MBP^+-OLs, top two panels) as an indication of murine oligodendrocyte precursor cell (OPC) differentiation, as well as the count of the total cells as an indication of cell proliferation/survival (DAPI nucleus stain, bottom two panels). The cells were treated with the listed compounds at 10 nM (FIG. 1A, 1B) and at 1 nM (FIG. 1C, 1D).

[3] = tested on: Cuprizone-Induced Demyelinated Mouse Model; test: Myelin recovery in the cuprizone-induced demyelinated mouse model (MOG IHC, Corpus Callosum); format: in vivo, C57BL/6 female mice; conditions: SC 5 mg/kg, 1.5-weeks treatment after 6 weeks cuprizone
Protocol: The Cuprizone assay of demyelination-remyelination was conducted by the methods described previously (Moore et al. 2013; Crawford et al, 2009a,b). A group of animals was on normal diet (N groups). The remainder of the mice were divided into groups of 5 and all of these groups of mice were fed cuprizone diet at (0.2% cuprizone mixed in chow). After 6 weeks on cuprizone diet-induced demyelination, a group of 5 mice were perfused (DM group). The other groups of mice were switched to normal diet for 1.5 weeks to initiate remyelination and were treated with either (i) Vehicle (SC+V) or (ii) test compound at a dose of 5 mg/kg. […] After 1.5 weeks of normal diet-induced remyelination, the mice were perfused. Brains were collected, cryoprotected, embedded, cut, and IHC for myelin oligodendrocyte glycoproteins (MOG) was performed. Cuprizone study results after 1.5-weeks treatment with the designated 7-substituted compounds via SC administration following 6 weeks cuprizone treatment of (C57BL/6) female mice are shown in FIG. 5. The height of each bar graph represents level of myelination assessed by the expression of MOG in the white matter tracks of the Corpus Callosum area quantified by immunohistochemical analysis (IHC) after staining with a MOG antibody. N: Normal diet, DM: Demyelinated status after 6 weeks cuprizone treatment, SC-Veh: Spontaneous remyelination after injection with matrix in saline solution only (without compound; recovery is only about 40%). (Mice: ~2 months age, SC: Subcutaneous injection, n=5). Cuprizone study results for the 3-weeks treatment with the 6-substituted compound 17 via SC administration following the 6 weeks of 0.2% cuprizone treatment of C57BL/6 female mice are shown in FIG. 6. The height of each bar graph represents level of myelination assessed by the expression of MOG in the white matter tracks of the Corpus Callosum area quantified by immunohistochemical analysis (IHC) after staining with a MOG antibody. N: Normal diet, DM: Demyelinated status after 6 weeks cuprizone treatment, SC-Veh: Spontaneous remyelination after injection with matrix in saline solution only (without compound; recovery is only about 40%). (Mice: ~2 months age, SC: Subcutaneous injection, n=5~6). […] (Mice: ~2 months age, s.c.: Subcutaneous administration, n=5).

| Structure (SMILES) | RBA ERα [1] | β/α (ERβ/ERα selectivity) [2] | RBA ERβ [2] | selectivity of binding to ERβ vs ERα [2] | binding affinity for ERα (in words) [1] | binding affinity for ERβ (in words) [2] | MBP expression / number of MBP+ OLs, compared to vehicle-treated cells (Primary OPCs; 1 nM) | number of MBP+ OLs with increased percentage of branched OLs, compared to vehicle-treated cells (Primary OPCs) | total number of cells (DAPI) (Primary OPCs) | remyelination (MOG expression in Corpus Callosum) [3] |
| --- | --- | --- | --- | --- | --- | --- | --- | --- | --- | --- |
| Cc1cc(O)cc2cn(-c3ccc(O)cc3)nc12 [Compound 10, 7-methyl-2-(4-hydroxyphenyl)-2H-indazol-5-ol] | 0.018% | 144 | 2.59% | 144 fold | – | – | – | – | – | – |
| Oc1ccc(-n2nc3cc(Cl)c(O)cc3c2Cl)cc1 [Compound 19, 3,6-dichloro-2-(4-hydroxyphenyl)-2H-indazol-5-ol] | 0.055% | 15.49 | 0.852% | – | – | – | – | – | – | – |
| Oc1cc(Cl)c2nn(-c3ccc(O)c(F)c3)cc2c1 [Compound 13, 7-Chloro-2-(3-fluoro-4-hydroxyphenyl)-2H-indazol-5-ol] | 0.023% | 469 | 10.76% | 469 fold | – | – | – | – | – | – |
| Oc1ccc(-n2nc3c(Br)cc(O)cc3c2Br)cc1 [Compound 4, 3,7-dibromo-2-(4-hydroxyphenyl)-2H-indazol-5-ol] | 21.29% | 7 | – | – | – | – | – | – | – | – |
| Oc1ccc(-n2nc3c(Br)cc(O)cc3c2Cl)cc1 [Compound 3, 7-bromo-3-chloro-2-(4-hydroxyphenyl)-2H-indazol-5-ol] | 15.57% | 18 | – | – | – | – | – | – | reduction | – |
| Oc1ccc(-n2nc3c(Br)cc(O)cc3c2F)cc1 [Compound 2, 7-bromo-3-fluoro-2-(4-hydroxyphenyl)-2H-indazol-5-ol] | 2.27% | 70.1 | – | – | – | – | – | – | reduction | – |
| Cc1cc(O)ccc1-n1nc2c(O)cc(O)cc2c1Cl [Compound 22, 3-chloro-2-(4-hydroxy-2-methylphenyl)-2H-indazole-5,7-diol] | 0.0005% | 12 | 0.006% | – | lower binding affinity | lower binding affinity | – | – | – | – |
| Oc1ccc(-n2cc3cc(O)cc(Cl)c3n2)cc1 [Compound 6, 7-chloro-2-(4-hydroxyphenyl)-2H-indazol-5-ol] | 0.098% | 200 | 19.6 ± 6.1% | 200 fold | – | – | – | – | – | – |
| Oc1ccc(-n2nc3c(O)cc(O)cc3c2Cl)cc1 [Compound 21, 3-chloro-2-(4-hydroxyphenyl)-2H-indazole-5,7-diol] | 0.001% | 51 | 0.051% | – | lower binding affinity | lower binding affinity | – | – | – | – |
| Oc1ccc(-n2nc3c(Cl)cc(O)cc3c2Cl)c(F)c1 [Compound 16, 3,7-dichloro-2-(2-fluoro-4-hydroxyphenyl)-2H-indazol-5-ol] | 4.71% | 6.74 | 31.76% | – | – | – | – | – | – | – |
| Cc1cc(O)ccc1-n1nc2cc(Cl)c(O)cc2c1Cl [Compound 20, 3,6-dichloro-2-(4-hydroxy-2-methylphenyl)-2H-indazol-5-ol] | 0.071% | 2.63 | 0.187% | – | – | – | – | – | – | – |

Now from value to compound, other results behind:

| RBA ERα [1] | β/α (ERβ/ERα selectivity) [2] | RBA ERβ [2] | selectivity of binding to ERβ vs ERα [2] | binding affinity for ERα (in words) [1] | binding affinity for ERβ (in words) [2] | Structure (SMILES) | MBP expression / number of MBP+ OLs, compared to vehicle-treated cells (Primary OPCs; 1 nM) | number of MBP+ OLs with increased percentage of branched OLs, compared to vehicle-treated cells (Primary OPCs) | total number of cells (DAPI) (Primary OPCs) | remyelination (MOG expression in Corpus Callosum) [3] |
| --- | --- | --- | --- | --- | --- | --- | --- | --- | --- | --- |
| 2.76% | 17 | 45.9% | – | – | – | Cc1cc(O)cc2c(Cl)n(-c3ccc(O)cc3)nc12 [Compound 11, 3-Chloro-7-methyl-2-(4-hydroxyphenyl)-2H-indazol-5-ol] | – | – | – | – |
| 0.258% | 87 | 22.4% | – | – | – | Oc1ccc(-n2cc3cc(O)cc(F)c3n2)cc1 [Compound 8, 7-fluoro-2-(4-hydroxyphenyl)-2H-indazol-5-ol] | – | – | – | – |
| 0.545% | 4.64 | 2.53% | – | – | – | Cc1cc(O)ccc1-n1nc2cc(F)c(O)cc2c1Cl [Compound 18, 3-Chloro-6-fluoro-2-(4-hydroxy-2-methylphenyl)-2H-indazol-5-ol] | significant increase | significant increase | – | – |
| 0.244% | 131 | 32.01 ± 0.09% | 131 fold | – | – | Oc1ccc(-n2cc3cc(O)cc(Br)c3n2)cc1 [Compound 1, 7-bromo-2-(4-hydroxyphenyl)-2H-indazol-5-ol] | – | significant increase | – | – |
| 0.86% | 38.3 | 32.96% | – | – | – | Oc1cc(Cl)c2nn(-c3ccc(O)c(F)c3)c(Cl)c2c1 [Compound 14, 3,7-dichloro-2-(3-fluoro-4-hydroxyphenyl)-2H-indazol-5-ol] | – | significant increase | – | somewhat less remyelination |
| 2.2% | 37 | 82.3% | – | – | – | Oc1ccc(-n2nc3c(F)cc(O)cc3c2Cl)cc1 [Compound 9, 3-Chloro-7-fluoro-2-(4-hydroxyphenyl)-2H-indazol-5-ol] | – | – | – | – |
| 0.052% | 185 | 9.63% | 185 fold | – | – | Oc1ccc(-n2cc3cc(O)cc(Cl)c3n2)c(F)c1 [Compound 15, 7-chloro-2-(2-fluoro-4-hydroxyphenyl)-2H-indazol-5-ol] | – | – | – | – |
| 0.16% | 246 | 39.4% | 246 fold | – | – | Oc1cccc(-n2nc3c(Br)cc(O)cc3c2Cl)c1 [Compound 12, 7-Bromo-3-chloro-2-(3-hydroxyphenyl)-2H-indazol-5-ol] | – | – | – | does not accelerate remyelination |
